Laboratory results from patent US12281225B2, “Process for preparing stable polymers containing vinylimidazole” (BASF SE, priority 2018, dated 2025).

Columns and labels:
[1] = test system: Yeast: Candida albicans, Candida valida, Rhodotorula rura, Saccharomyces cerevisiae; experiment: Preservation test with periodic inoculation, yeast assessment; format: cell-based; settings: for Start sample measurement, yeast assess., 4th inoculation: freshly formulated; for 60 d 40° C., yeast assess., 4th inoculation: sample stored 60 d at 40° C.
Experimental: (§1) Microbiological results at the start (freshly formulated, i.e. 4-week test series is started immediately) and after 60 days of storage at 40° C. (i.e. the 4-week microbial testing is started with the sample stored at 40° C. for 60 days)
(§2) The test described below is carried out in order to ascertain the preserving effect of chemical preservatives in aqueous products and systems, the principle of the described method reflecting the efficacy of chemical preservatives with respect to pot-maintenance of aqueous products/systems under conditions corresponding to the use of laundry products/consumer products by the consumer. For this purpose, the preservatives to be tested are added in those concentrations which correspond to from the literature or to the manufacturer data from the suppliers (e.g. Thor, Speyer). In said test, our orientation was toward the upper range, which, with the exception of VI-containing polymers, had always led to excellent results in the case of aqueous polymers for laundry.
(§3) A constant microorganism load is achieved by periodic inoculation of the test batches. Before the swabs of each batch made respectively immediately in parallel with the inoculation. The assessment is made on the basis of the microbial growth of the streaks.
(§4) When carrying out said tests, 25 g of the polymer to be tested are weighed in each case into a vessel with a screw cap. The preservatives to be tested are each added in separate batches according to the specified use concentrations. An unpreserved product sample was used in each case for the growth control. Two days after the addition of the preservative, the samples are infected with 0.5 ml of inoculum (2% w/w). The titer of this inoculant solution is 10^9 organisms per ml. The following microorganisms are the test organisms for the preservation test:
(§5) • Escherichia coli • Staphylococcus aureus • Pseudomonas aeruginosa • Pseudomonas putida • Burkholderia cepacia • Alcaligenes faecalis Yeast: • Candida albicans • Candida valida • Rhodotorula rura • Saccharomyces cerevisiae
(§6) The test batches are inoculated four times altogether and once a week and are streaked on an agar plate once a week; the first streaking is done immediately before the new inoculation. Microbial growth on the agar surface is assessed after a three-day incubation at 25° C. As a precaution, negative swabs are additionally observed for a further three days and reassessed. The preserving effect is effected in a semiquantitative method via the growth of the individual streaks in accordance with the assessment from − via + to +++. The preservative result is repeatedly demonstrably robust, i.e. +++− defines the microbial growth.
(§7) When assessing the results, it is assumed that a preservative can be regarded as good if there are batches under the above-described laboratory conditions for a period of four weeks without microbial invasion of the sample, and that, even after the fourth inoculation, no microbial attacks occur growth can be identified. • −−: no growth • −: slight growth, max. 100 colonies • 0: moderate growth, max. 400 colonies • +: uniform growth with individual colonies still easily identifiable • ++: strong growth; too many colonies to be counted, already some extensive growth

[2] = test system: Bacteria: Escherichia coli, Staphylococcus aureus, Pseudomonas aeruginosa, Pseudomonas putida, Burkholderia cepacia, Alcaligenes faecalis; experiment: Preservation test with periodic inoculation, bacteria assessment; format: cell-based; settings: sample stored 60 d at 40° C.
Experimental: as §1, §2, §3, §4, §5, §6, §7

[3] = Iodine color number according to DIN 6162:2014-09; format: physicochemical
[4] = Analysis of active substance: preservative concentration before and after storage in VI-containing polymer solution; format: physicochemical; settings: for active-substance concentration, 0 d, RT: before storage; for active-substance concentration, 14 d, 40° C.: storage 14 d at 40° C.; for active-substance concentration, 28 d, 40° C.: storage 28 d at 40° C.; for active-substance concentration, 60 d 40° C.: storage 60 d at 40° C.
Experimental: Stability of Preservatives in VI-Containing Polymers:
The following stabilizers for VI-containing polymers (here: aqueous solution of a copolymer of vinylpyrrolidone and vinylimidazole) were tested.
MIT, BIT, CMIT, OIT, DCOIT and iodopropynyl butyl carbamate were determined by RP chromatography with UV detection after dilution of the sample to be tested. An RP18 column was used for this purpose, with an eluent composed of an acid-methanol mixture under isocratic conditions.

[5] = Polymer P5 (HP56) with stabilizer

Structure (SMILES): CCCCCCCCn1sc(Cl)c(Cl)c1=O [DCOIT, dichloroctylisothiazolinone]
- Start sample measurement, yeast assess., 4th inoculation ([1]; Polymer P1): − (slight growth, max. 100 colonies)
- 60 d 40° C., yeast assess., 4th inoculation ([1]; Polymer P1): +
- Start sample measurement, yeast assess., 4th inoculation ([1]; Polymer P2): − (slight growth, max. 100 colonies)
- 60 d 40° C., yeast assess., 4th inoculation ([1]; Polymer P2): +
- Start sample measurement, yeast assess., 4th inoculation ([1]; Polymer P3): − (slight growth, max. 100 colonies)
- 60 d 40° C., yeast assess., 4th inoculation ([1]; Polymer P3): ++
- Start sample measurement, yeast assess., 4th inoculation ([1]; Polymer P4): − (slight growth, max. 100 colonies)
- 60 d 40° C., yeast assess., 4th inoculation ([1]; Polymer P4): ++
- Start sample measurement, yeast assess., 4th inoculation ([1]; Polymer P5 (HP56)): − (slight growth, max. 100 colonies)
- 60 d 40° C., yeast assess., 4th inoculation ([1]; Polymer P5 (HP56)): ++
- Start sample measurement, yeast assess., 4th inoculation ([1]; Polymer P6): − (slight growth, max. 100 colonies)
- 60 d 40° C., yeast assess., 4th inoculation ([1]; Polymer P6): +
- Start sample measurement, yeast assess., 4th inoculation ([1]; Polymer P7): − (slight growth, max. 100 colonies)
- 60 d 40° C., yeast assess., 4th inoculation ([1]; Polymer P7): ++
- Start sample measurement, yeast assess., 4th inoculation ([1]; Polymer P8): − (slight growth, max. 100 colonies)
- 60 d 40° C., yeast assess., 4th inoculation ([1]; Polymer P8): 0 (moderate growth, max. 400 colonies)
- Start sample measurement, yeast assess., 4th inoculation ([1]; Polymer P9): − (slight growth, max. 100 colonies)
- 60 d 40° C., yeast assess., 4th inoculation ([1]; Polymer P9): ++
- 60 d 40° C., bact. assess., 4th inoculation ([2]; Polymer P1): 0 (moderate growth, max. 400 colonies)
- 60 d 40° C., bact. assess., 4th inoculation ([2]; Polymer P2): +
- 60 d 40° C., bact. assess., 4th inoculation ([2]; Polymer P3): +
- 60 d 40° C., bact. assess., 4th inoculation ([2]; Polymer P4): +
- 60 d 40° C., bact. assess., 4th inoculation ([2]; Polymer P5 (HP56)): +
- 60 d 40° C., bact. assess., 4th inoculation ([2]; Polymer P6): +
- 60 d 40° C., bact. assess., 4th inoculation ([2]; Polymer P7): +
- 60 d 40° C., bact. assess., 4th inoculation ([2]; Polymer P8): +
- 60 d 40° C., bact. assess., 4th inoculation ([2]; Polymer P9): ++
- Iodine color number, 60 d 40° C. ([3]; Polymer P1 with stabilizer): 6.2
- Iodine color number, start ([3]; Polymer P1 with stabilizer): 3.0
- Iodine color number, 60 d 40° C. ([3]; Polymer P2 with stabilizer): 8.1
- Iodine color number, start ([3]; Polymer P2 with stabilizer): 3.1
- Iodine color number, 60 d 40° C. ([3]; Polymer P3 with stabilizer): 9.1
- Iodine color number, start ([3]; Polymer P3 with stabilizer): 3.4
- Iodine color number, 60 d 40° C. ([3]; Polymer P4 with stabilizer): 8.9
- Iodine color number, start ([3]; Polymer P4 with stabilizer): 3.4
- Iodine color number, 60 d 40° C. [3, 5]: 8.7
- Iodine color number, start [3, 5]: 3.6
- Iodine color number, 60 d 40° C. ([3]; Polymer P6 with stabilizer): 8.4
- Iodine color number, start ([3]; Polymer P6 with stabilizer): 3.6
- Iodine color number, 60 d 40° C. ([3]; Polymer P7 with stabilizer): 8.4
- Iodine color number, start ([3]; Polymer P7 with stabilizer): 3.6
- Iodine color number, 60 d 40° C. ([3]; Polymer P8 with stabilizer): 8.9
- Iodine color number, start ([3]; Polymer P8 with stabilizer): 3.4
- Iodine color number, 60 d 40° C. ([3]; Polymer P9 with stabilizer): 14.7
- Iodine color number, start ([3]; Polymer P9 with stabilizer): 3.9
- active-substance concentration, 0 d, RT ([4]; in Polymer P1): 300 ppm
- active-substance concentration, 14 d, 40° C. ([4]; in Polymer P1): 244 ppm
- active-substance concentration, 28 d, 40° C. ([4]; in Polymer P1): 183 ppm
- active-substance concentration, 60 d 40° C. ([4]; in Polymer P1): 94 ppm
- active-substance concentration, 0 d, RT ([4]; in Polymer P2): 300 ppm
- active-substance concentration, 14 d, 40° C. ([4]; in Polymer P2): 244 ppm
- active-substance concentration, 28 d, 40° C. ([4]; in Polymer P2): 195 ppm
- active-substance concentration, 60 d 40° C. ([4]; in Polymer P2): 109 ppm
- active-substance concentration, 0 d, RT ([4]; in Polymer P3): 300 ppm
- active-substance concentration, 14 d, 40° C. ([4]; in Polymer P3): 232 ppm
- active-substance concentration, 28 d, 40° C. ([4]; in Polymer P3): 183 ppm
- active-substance concentration, 60 d 40° C. ([4]; in Polymer P3): 112 ppm
- active-substance concentration, 0 d, RT ([4]; in Polymer P4): 300 ppm
- active-substance concentration, 14 d, 40° C. ([4]; in Polymer P4): 246 ppm
- active-substance concentration, 28 d, 40° C. ([4]; in Polymer P4): 198 ppm
- active-substance concentration, 60 d 40° C. ([4]; in Polymer P4): 123 ppm
- active-substance concentration, 0 d, RT ([4]; in Polymer P5 (HP56)): 300 ppm
- active-substance concentration, 14 d, 40° C. ([4]; in Polymer P5 (HP56)): 230 ppm
- active-substance concentration, 28 d, 40° C. ([4]; in Polymer P5 (HP56)): 180 ppm
- active-substance concentration, 60 d 40° C. ([4]; in Polymer P5 (HP56)): 94 ppm
- active-substance concentration, 0 d, RT ([4]; in Polymer P6): 300 ppm
- active-substance concentration, 14 d, 40° C. ([4]; in Polymer P6): 222 ppm
- active-substance concentration, 28 d, 40° C. ([4]; in Polymer P6): 184 ppm
- active-substance concentration, 60 d 40° C. ([4]; in Polymer P6): 98 ppm
- active-substance concentration, 0 d, RT ([4]; in Polymer P7): 300 ppm
- active-substance concentration, 14 d, 40° C. ([4]; in Polymer P7): 228 ppm
- active-substance concentration, 28 d, 40° C. ([4]; in Polymer P7): 189 ppm
- active-substance concentration, 60 d 40° C. ([4]; in Polymer P7): 106 ppm
- active-substance concentration, 0 d, RT ([4]; in Polymer P8): 300 ppm
- active-substance concentration, 14 d, 40° C. ([4]; in Polymer P8): 230 ppm
- active-substance concentration, 28 d, 40° C. ([4]; in Polymer P8): 180 ppm
- active-substance concentration, 60 d 40° C. ([4]; in Polymer P8): 94 ppm
- active-substance concentration, 0 d, RT ([4]; in Polymer P9): 300 ppm
- active-substance concentration, 14 d, 40° C. ([4]; in Polymer P9): 219 ppm
- active-substance concentration, 28 d, 40° C. ([4]; in Polymer P9): 165 ppm
- active-substance concentration, 60 d 40° C. ([4]; in Polymer P9): 87 ppm
